Laboratory results reported in US20060074101A1, “Method of treating post operative nausea and vomiting” (Helsinn Healthcare SA, priority 2003, published 2006).

Assays:
[1] = system: postoperative vomiting and nausea (PONV); assay: Prevention of PONV using a single intravenous dose of palonosetron (hysterectomy patients); format: in vivo, human; conditions: for patients who had received rescue therapy: by 24 hours; for Time to Failure (hr) (median): emesis or rescue medication, whichever first; for patients who experienced one or more emetic episodes: at 12 hours; for patients who had experienced an emetic episode: at 24 hours; for patients who experienced an emetic episode: two hours postrecovery; for Nausea Mean Score / No Nausea (patients) / Severe Nausea (patients): during 24 hours after recovery
Experimental: A study was conducted to test the efficacy and safety of five doses of intravenously administered palonosetron for the prophylaxis of postoperative vomiting and nausea. A total of 381 women, 24-80 years of age, scheduled for abdominal or vaginal hysterectomy and having ASA physical status rating of I or II were enrolled in this study. All patients received balanced general anesthesia, including N2O plus an opiate. Study medication, palonosetron, was administered over 30 seconds through a peripheral IV line at skin closure at the conclusion of the surgical procedure.

[2] = system: postoperative vomiting and nausea (PONV); assay: Oral administration of palonosetron for prophylaxis of PONV (elective laparoscopic surgery patients); format: in vivo, human; conditions: for % no EE / % with CR: 4 hours after recovery; for % no EE / % with CR / % no EE (no emetic episodes) / % with CC (complete control) / % with CR (complete response): evaluable patients; for % no EE (no emetic episodes) / % with CC (complete control) / % with CR (complete response): 24 hours after recovery; for Nausea Mean Score / No Nausea (patients) / Severe Nausea (patients): during 24 hours after recovery; for patients free from emetic episodes: first 4 hours of recovery
Experimental: A study was performed to test the efficacy, safety, and pharmacokinetics of five doses of orally administered palonosetron for the prophylaxis of postoperative vomiting and nausea. Three hundred fifty-one patients, 308 women and 43 men, 19-75 years of age, scheduled for elective laparoscopic surgical procedures and having an ASA physical status rating of I and II were enrolled in this study. All patients received balanced general anesthesia, including […] plus an opiate. Doses of palonosetron were calculated based on thee patient's body weight at the screening visit, rounded to the nearest kilogram. Each dose was diluted to a total volume of 25 mL by adding sterile water to the dosing cup. The dosing cup was rinsed with 25 mL of sterile water and the patient also swallowed this 25 mL. Study medication was administered 2 hours prior to scheduled induction of anesthesia for surgeries requiring nasogastric suction and 1 hour prior to scheduled induction of anesthesia for all other laparoscopic surgical procedures.

[3] = Stability of palonosetron in solution; format: physicochemical; conditions: dependence on concentration
[4] = 0.1 μg/kg IV, 24 hours after recovery, evaluable patients
[5] = 0.3 μg/kg IV, 4 hours after recovery
[6] = 0.3 μg/kg IV, 24 hours after recovery, evaluable patients
[7] = 1 μg/kg IV, 4 hours after recovery
[8] = 1.0 μg/kg IV, 24 hours after recovery, evaluable patients
[9] = 3.0 μg/kg IV, 24 hours after recovery, evaluable patients
[10] = 30 μg/kg IV, 4 hours after recovery
[11] = 30 μg/kg IV, 24 hours after recovery, evaluable patients

Cl.O=C1c2cccc3c2[C@H](CCC3)CN1[C@@H]1CN2CCC1CC2 [palonosetron, (3aS)-2,3,3a,4,5,6-Hexahydro-2-[(S)-1-Azabicyclo[2.2.2]oct-3-yl]2,3,3a,4,5,6-hexahydro-1-oxo-1Hbenz[de]isoquinoline]
Duration of Effect: Emetic Episode (25th Percentile) ([1]; 0.1 μg/kg IV): 2.2 h
Duration of Effect: Emetic Episode, second line of values (percentile not given) ([1]; 0.1 μg/kg IV): >24 h
Duration of Effect: Rescue (50th percentile) ([1]; 0.1 μg/kg IV): 8.5 h
% with CR ([1]; 0.1 μg/kg IV, 4 hours after recovery): 57%
% no EE [1, 4]: 55%
% with CC (complete control) [1, 4]: 34%
% with CR (complete response) [1, 4]: 34%
patients who had received rescue therapy ([1]; 0.1 μg/kg IV): 59.6%
Time to Failure (hr) (median) ([1]; 0.1 μg/kg IV): 6.0 h
Duration of Effect: Emetic Episode (25th Percentile) ([1]; 0.3 μg/kg IV): 8.4 h
Duration of Effect: Emetic Episode, second line of values (percentile not given) ([1]; 0.3 μg/kg IV): >24 h
Duration of Effect: Rescue (50th percentile) ([1]; 0.3 μg/kg IV): 9.9 h
% no EE [1, 5]: 90%
% with CR [1, 5]: 72%
% no EE [1, 6]: 60%
% with CC (complete control) [1, 6]: 33%
% with CR (complete response) [1, 6]: 34%
patients who experienced one or more emetic episodes ([1]; 0.3 μg/kg IV): 29.9%
patients who had experienced an emetic episode ([1]; 0.3 μg/kg IV): 40.3%
patients who had received rescue therapy ([1]; 0.3 μg/kg IV): 59.7%
Time to Failure (hr) (median) ([1]; 0.3 μg/kg IV): 9.6 h
patients who experienced an emetic episode ([1]; 0.3 μg/kg IV): 10.4%
Duration of Effect: Emetic Episode (25th Percentile) ([1]; 1 μg/kg IV): 21.8 h
Duration of Effect: Emetic Episode, second line of values (percentile not given) ([1]; 1 μg/kg IV): >24 h
Duration of Effect: Rescue (50th percentile) ([1]; 1 μg/kg IV): 21.3 h
% no EE [1, 7]: 92%
% with CR [1, 7]: 69%
% no EE [1, 8]: 73%
% with CC (complete control) [1, 8]: 44%
% with CR (complete response) [1, 8]: 44%
patients who experienced one or more emetic episodes ([1]; 1 μg/kg IV): 14.5%
patients who had experienced an emetic episode ([1]; 1 μg/kg IV): 27.4%
patients who had received rescue therapy ([1]; 1 μg/kg IV): 51.6%
Nausea Mean Score ([1]; 1 μg/kg IV): 0.82
No Nausea (patients) ([1]; 1 μg/kg IV): 36.1%
Severe Nausea (patients) ([1]; 1 μg/kg IV): 3.3%
Time to Failure (hr) (median) ([1]; 1.0 μg/kg IV): 19.5 h
patients who experienced an emetic episode ([1]; 1 μg/kg IV): 6.5%
nausea reported versus placebo ([1]; 1 μg/kg, 3 μg/kg, and 30 μg/kg IV, 24-hour period following recovery): statistically significantly less nausea
Duration of Effect: Emetic Episode (25th Percentile) ([1]; 3 μg/kg IV): 4.9 h
Duration of Effect: Emetic Episode, second line of values (percentile not given) ([1]; 3 μg/kg IV): >24 h
Duration of Effect: Rescue (50th percentile) ([1]; 3 μg/kg IV): 8.0 h
% with CR ([1]; 3 μg/kg IV, 4 hours after recovery): 66%
% no EE [1, 9]: 61%
% with CC (complete control) [1, 9]: 30%
% with CR (complete response) [1, 9]: 30%
Nausea Mean Score ([1]; 3 μg/kg IV): 0.92
No Nausea (patients) ([1]; 3 μg/kg IV): 34.8%
Severe Nausea (patients) ([1]; 3 μg/kg IV): 3.0%
Time to Failure (hr) (median) ([1]; 3.0 μg/kg IV): 7.3 h
Duration of Effect: Emetic Episode (25th Percentile) ([1]; 30 μg/kg IV): >24 h
Duration of Effect: Emetic Episode, second line of values (percentile not given) ([1]; 30 μg/kg IV): >24 h
Duration of Effect: Rescue (50th percentile) ([1]; 30 μg/kg IV): 23.2 h
% no EE [1, 10]: 94%
% with CR [1, 10]: 66%
% no EE [1, 11]: 76%
% with CC (complete control) [1, 11]: 45%
% with CR (complete response) [1, 11]: 45%
patients who experienced one or more emetic episodes ([1]; 30 μg/kg IV): 13.4%
patients who had experienced an emetic episode ([1]; 30 μg/kg IV): 23.9%
patients who had received rescue therapy ([1]; 30 μg/kg IV): 50.7%
Nausea Mean Score ([1]; 30 μg/kg IV): 0.66
No Nausea (patients) ([1]; 30 μg/kg IV): 47.8%
Time to Failure (hr) (median) ([1]; 30 μg/kg IV): 15.0 h
patients who experienced an emetic episode ([1]; 30 μg/kg IV): 4.5%
patients free from emetic episodes ([1]; 0.3-, 1-, and 30-μg/kg IV groups (range), first 4 hours of recovery): 90-94%
dose at which the clinical response substantially plateaus ([1]; administered intravenously or orally): about 1 microgram/kilogram of body weight
patients who received rescue medication ([1]; palonosetron-treated patients IV (range over dose groups), at 8 hours): 35.5-50.7%
patients who received rescue therapy ([1]; palonosetron-treated patients IV (range over dose groups), within the first 2 hours): 21-31%
% no EE ([2]; 0.1 μg/kg oral): 73%
% with CR ([2]; 0.1 μg/kg oral): 60%
nausea, position of treatment group relative to other groups ([2]; 0.3 μg/kg oral, 24-hour period following recovery): intermediate to the placebo group and the other palonosetron treatment groups
% no EE ([2]; 0.3 μg/kg oral): 72%
% with CR ([2]; 0.3 μg/kg oral): 61%
% no EE (no emetic episodes) ([2]; 0.3 μg/kg oral): 50%
% with CC (complete control) ([2]; 0.3 μg/kg oral): 37%
% with CR (complete response) ([2]; 0.3 μg/kg oral): 37%
Nausea Mean Score ([2]; 0.3 μg/kg oral): 0.83
No Nausea (patients) ([2]; 0.3 μg/kg oral): 44.8%
Severe Nausea (patients) ([2]; 0.3 μg/kg oral): 3.4%
% no EE ([2]; 1 μg/kg oral): 81%
% with CR ([2]; 1 μg/kg oral): 70%
% no EE (no emetic episodes) ([2]; 1 μg/kg oral): 67%
% with CC (complete control) ([2]; 1 μg/kg oral): 58%
% with CR (complete response) ([2]; 1 μg/kg oral): 58%
Nausea Mean Score ([2]; 1 μg/kg oral): 0.64
No Nausea (patients) ([2]; 1 μg/kg oral): 52.8%
Severe Nausea (patients) ([2]; 1 μg/kg oral): 3.8%
patients free from emetic episodes ([2]; 1.0 μg/kg oral): 72%
% no EE ([2]; 3 μg/kg oral): 82%
% with CR ([2]; 3 μg/kg oral): 76%
% no EE (no emetic episodes) ([2]; 3 μg/kg oral): 63%
% with CC (complete control) ([2]; 3 μg/kg oral): 52%
% with CR (complete response) ([2]; 3 μg/kg oral): 52%
Nausea Mean Score ([2]; 3 μg/kg oral): 0.65
No Nausea (patients) ([2]; 3 μg/kg oral): 55.8%
Severe Nausea (patients) ([2]; 3 μg/kg oral): 7.7%
patients free from emetic episodes ([2]; 3 μg/kg oral): 81%
% no EE (no emetic episodes) ([2]; 10 μg/kg oral): 71%
% with CC (complete control) ([2]; 10 μg/kg oral): 57%
% with CR (complete response) ([2]; 10 μg/kg oral): 59%
Nausea Mean Score ([2]; 10 μg/kg oral): 0.71
No Nausea (patients) ([2]; 10 μg/kg oral): 51.1%
Severe Nausea (patients) ([2]; 10 μg/kg oral): 2.2%
patients free from emetic episodes ([2]; 10 μg/kg oral): 82%
% no EE ([2]; 30 μg/kg oral): 69%
% with CR ([2]; 30 μg/kg oral): 63%
% no EE (no emetic episodes) ([2]; 30 μg/kg oral): 65%
% with CC (complete control) ([2]; 30 μg/kg oral): 51%
% with CR (complete response) ([2]; 30 μg/kg oral): 53%
Nausea Mean Score ([2]; 30 μg/kg oral): 0.79
No Nausea (patients) ([2]; 30 μg/kg oral): 44.8%
Severe Nausea (patients) ([2]; 30 μg/kg oral): 5.2%
nausea reported versus placebo ([2]; 1, 3, 10, and 30 μg/kg oral, 24-hour period following recovery): statistically significantly less nausea
dose at which clinical response reached a plateau ([2]; orally administered): 1 µg/kg
stability in solution [3]: stability of palonosetron increases in solution as its concentration decreases
